The source of these data is patent publication US20250360132A1, “METHODS OF ADMINISTERING MYOSIN INHIBITORS” (MYOKARDIA, INC., priority 2022, published 2025).

Bounds are passed on as bounds.

The nature of data set [1]: Clinical pharmacokinetics. It is filed as in vivo, human. The procedure:
At the same dose level of MAVACAMTEN, 170% higher exposures of mavacamten are observed in patients with HCM compared to healthy subjects.
The Tmax was increased by 4 hours.
Mavacamten has a variable terminal t1/2 that depends on CYP2C19 metabolic status. […] Drug accumulation occurs with an accumulation ratio of about 2-fold for Cmax and about 7-fold for AUC in CYP2C19 NMs. The accumulation depends on the metabolism status for CYP2C19 with the largest accumulation observed in CYP2C19 PMs. At steady-state, the peak-to-trough plasma concentration ratio with once daily dosing is approximately 1.5.
Following a single 25 mg dose of radiolabeled mavacamten, 7% of the dose was recovered in feces (1% unchanged) and 85% in urine (3% unchanged).
The effects of severe (eGFR: 15 to 30 mL/min/1.73 m^2) renal impairment and kidney failure (eGFR: <15 mL/min/1.73 m^2; including patients on dialysis) are unknown.

Another data set deals with pregnant rabbits. Briefly: Embryo-fetal development study in rabbits. The data set is classed as in vivo, rabbit. How it is done: Visceral findings consisted of malformations of the great vessels (dilatation of pulmonary trunk and/or aortic arch). Skeletal malformations consisted of higher incidences of fused sternebrae at ≥1.2 mg/kg/day. Plasma exposure (AUC) at the no-effect dose for embryo-fetal development in rabbits is 0.4 times the exposure in humans at the MRHD.

For a further data set, the system named is rasH2 transgenic mouse. Put plainly: 6-month rasH2 transgenic mouse carcinogenicity study. The data set is classed as in vivo.
The next data set concerns rats. Put plainly: Animal toxicology, rats. The data set is classed as in vivo. The procedure:
(§1) The safety of mavacamten has been evaluated in rats and dogs at multiple dose levels (0.06 to 10 mg/kg/day) orally. […] Plasma exposures (AUC) at the NOAEL in rats and dogs were 0.1 and 0.3 times, respectively, human exposure (AUC) at the MRHD.

The next data set relates to HCM patients. Briefly: Meta-analysis of QTc across clinical studies. The data set is classed as in vivo, human. Conditions: therapeutic exposure range. An excerpt: The effect of coadministration of MAVACAMTEN with QT-prolonging drugs or in patients with potassium channel variants resulting in a long QT interval have not been characterized.
The test system of the next data set is dogs. Put plainly: Animal toxicology, dogs. The data set is classed as in vivo. How it is done: as §1
For another data set, the system named is pregnant rats. Briefly: Embryo-fetal development study in rats. The data set is classed as in vivo, rat. From the text: Plasma exposure (based on area under the concentration-time curve or AUC) at the no-effect dose for embryo-fetal development in rats is 0.3 times the exposure in humans at the MRHD.
The next data set has as its system healthy volunteers. Put plainly: Cardiac electrophysiology (QTc) in healthy volunteers. It is filed as in vivo, human. An excerpt:
The mechanism of the QT prolongation effect is not known.

The next data set concerns bacterial. It is filed as cell-based. From the text:
(§2) Mavacamten was not genotoxic in a bacterial reverse mutation test (Ames test), a human in vitro lymphocyte […] assay, or a rat in vivo micronucleus assay.

A further data set deals with MATE1 (Homo sapiens, UniProt Q96FL8). Briefly: In vitro transporter inhibition. It is filed as in vitro ADME.
Chain of MATE1 (Q96FL8 whole entry): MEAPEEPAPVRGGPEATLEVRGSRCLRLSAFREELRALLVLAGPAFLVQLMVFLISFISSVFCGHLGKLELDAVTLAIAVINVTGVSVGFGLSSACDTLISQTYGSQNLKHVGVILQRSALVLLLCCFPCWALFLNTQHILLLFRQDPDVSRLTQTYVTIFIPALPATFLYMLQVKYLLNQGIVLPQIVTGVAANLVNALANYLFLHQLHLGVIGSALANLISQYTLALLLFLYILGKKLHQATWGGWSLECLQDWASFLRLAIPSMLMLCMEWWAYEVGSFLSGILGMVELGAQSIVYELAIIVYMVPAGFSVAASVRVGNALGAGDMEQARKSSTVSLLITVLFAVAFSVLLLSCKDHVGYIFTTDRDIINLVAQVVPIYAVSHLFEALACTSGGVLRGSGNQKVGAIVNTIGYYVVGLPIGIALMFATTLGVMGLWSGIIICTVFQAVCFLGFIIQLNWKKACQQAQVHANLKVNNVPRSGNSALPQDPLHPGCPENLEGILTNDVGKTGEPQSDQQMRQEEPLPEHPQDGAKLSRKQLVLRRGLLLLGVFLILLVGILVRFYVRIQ
Data set [2] can be described thus: Pharmacokinetics in hepatic impairment. It is filed as in vivo, human. Particulars: mild (Child-Pugh A) or moderate (Child-Pugh B) hepatic impairment vs normal hepatic function. An excerpt: No dosage adjustment is required in patients with mild (Child-Pugh A) to moderate (Child-Pugh B) hepatic impairment. […] However, no additional dose adjustment is required in patients with mild to moderate hepatic impairment with the recommended dose titration algorithm and monitoring plan. The effect of severe (Child-Pugh C) hepatic impairment is unknown.
The effect of severe (Child-Pugh C) hepatic impairment is unknown.

For the next data set, the system named is rat. Briefly: Rat in vivo micronucleus assay.
Excerpt: as §2

For the compound `CC(C)n1c(=O)cc(N[C@@H](C)c2ccccc2)[nH]c1=O` [mavacamten, (S)-3-Isopropyl-6-((1-phenylethyl)amino)pyrimidine-2,4(1H,3H)-dione], the “Pharmacokinetics in specific populations” value in data set [1] (age 18-82 years, sex, race, ethnicity, mild to moderate renal impairment) is “No clinically significant differences”. Besides, in [1] (high fat meal), the “Effect of food on pharmacokinetics” value is given as “No clinically significant differences”. Also, the “Dose proportionality of exposure” value in data set [1] (multiple once-daily doses of 1 mg to 15 mg) is “increases generally dose proportionally”. Moreover, the “Higher exposure in patients with HCM compared to healthy subjects” value in data set [1] (same dose level) came to 170%. Moreover, the “Embryo-fetal findings (risk summary)” value was “increases in visceral and skeletal malformations” with pregnant rabbits (both rabbits and rats, dose exposures similar to that at the MRHD); “decreases in mean fetal body weight, reductions in fetal ossification of bones, and increases in post-implantation loss” with pregnant rats (rats, dose exposures similar to that at the MRHD). In addition, the “Doses at which fetal malformations (visceral and skeletal) were increased” value in the data set with pregnant rabbits (oral, period of organogenesis) is listed as at least 1.2 mg/kg/day. In addition, the “Plasma exposure (AUC) at the no-effect dose for embryo-fetal development vs humans at the MRHD” value was 0.4 times in the data set on pregnant rabbits (rabbits) and 0.3 times with pregnant rats (rats). In the data set with rasH2 transgenic mouse (6-month, up to 2.0 mg/kg/day in males and 3.0 mg/kg/day in females), the Carcinogenicity result is reported as “no evidence of carcinogenicity”. For the same compound, the “Exposure (AUC) compared to humans at the MRHD” value with rasH2 transgenic mouse (females, 3.0 mg/kg/day) is given as 3 fold; in the data set on rasH2 transgenic mouse (males, 2.0 mg/kg/day) it was 1.8 fold. The “Plasma exposure (AUC) at the NOAEL vs human exposure at the MRHD” value with rats was 0.1 times; in the data set with dogs, 0.3 times. Besides, the “QTc interval in HCM patients” value in the data set on HCM patients is recorded as “does not suggest clinically relevant increases in the QTc interval”. For the same compound, the “Embryo-fetal findings in the high dose group” value with pregnant rats (oral, 1.5 mg/kg/day, period of organogenesis) was “increases in post-implantation loss, decreases in mean fetal body weight, reductions in fetal ossification of bones, and fetal malformations (visceral and skeletal)”. Further, in the data set on healthy volunteers (doses up to 25 mg once daily), the “QTc interval effect, multiple doses” value is given as “concentration-dependent increase in the QTc interval”. In the data set on healthy volunteers (similar exposures), the “QTc interval effect, single-dose studies” value is listed as “No acute QTc changes”. For the same compound, the “Genotoxicity, Ames test” value in the data set with bacterial is listed as “not genotoxic”. For the same compound, the “Inhibition of MATE1” value at MATE1 is “does not inhibit”. Moreover, the “Increase in mavacamten exposure (AUC)” value in data set [2] was “up to 220%”. Further, the “Genotoxicity, rat in vivo micronucleus assay” value in the data set on rat is on record as “not genotoxic”.
